Test results published in patent US20230002368A1, “USE OF COMPOUNDS FOR THE PREVENTION AND/OR TREATMENT OF ANKYLOSING SPONDYLITIS, AND CORRESPONDING COMPOSITIONS” (NUVAMID SA, priority 2019, published 2023).

How the values were obtained:
[1] = tested on: TgA86 mice as a model for ankylosing spondylitis; assay: TgA86 mouse model of ankylosing spondylitis: joint score and tail score; assay type: in vivo; settings: male TgA86 mice, NMN 185 mg/kg intraperitoneally
Method: (§1) The efficacy of the use of NMN (compound IE) according to the invention was evaluated in 3-week-old TgA86 mice as a model for ankylosing spondylitis. TgA86 mice develop peripheral and axial AS with an incidence of 100%. In these mice, the peripheral form is manifested by joint welling and paw deformation, whilst the axial form is clinically characterised by curved tails and pelvic ankylosis.
(§2) In brief, male TgA86 mice were divided into two groups of 10 mice each: (i) a control group, in which the mice were treated with vehicle, i.e. a 0.9% NaCl solution (10 mL/kg), marked ‘Vehicle’; […] a group of mice treated with NMN (185 mg/kg), marked ‘NMN’. The solutions were injected intraperitoneally.
The mice were treated for 10 weeks under the conditions set forth supra. The joint score, tail score, and weight of the mice were measured every week. The joint score was determined in accordance with table 3 infra:
The tail score is an indicator that allows for an evaluation of the axial form of AS and pelvic ankylosis (see https://www.biomedcode.com/wp-content/uploads/2019/07/TgA86-white-paper.pdf). The tail score was determined in accordance with table 4 infra: […]

[2] = Weight and tolerance of treated TgA86 mice; assay type: in vivo; settings: male TgA86 mice, NMN 185 mg/kg intraperitoneally, 10 weeks
Method: as §1, §2
The mice were treated for 10 weeks under the conditions set forth supra. The joint score, tail score, and weight of the mice were measured every week. The joint score was determined in accordance with table 3 infra: […]

NC(=O)c1ccc[n+]([C@@H]2O[C@H](COP(=O)([O-])O)[C@@H](O)[C@H]2O)c1 [NMN, nicotinamide mononucleotide]
average joint score (peripheral AS) ([1]; 10 weeks, vs vehicle control group (FIG. 2)): reduction in the joint score of the mice compared to the control group
average tail score (axial AS, pelvic ankylosis) ([1]; 10 weeks, vs vehicle control group (FIG. 3)): reduces the tail score in the mice treated compared to the control group
significance of the joint score reduction over time ([1]; T-test vs vehicle (FIG. 2)): particularly significant starting in the 5th week of treatment
significance of the tail score reduction over time ([1]; T-test vs vehicle (FIG. 3)): significant starting in the second week of treatment
tolerance / toxicity in the animals [2]: well tolerated by the mice and does not cause any distress or toxicity in the animals
development of the average weight of mice ([2]; measured every week, vs vehicle (FIG. 1)): follows a similar course of development to that of the control group
